Oligonucleotides are written 5' to 3', each unit as a sugar letter and its base; * is a phosphorothioate linkage, no mark a phosphodiester; rarer units and linkages stand in square brackets, end groups in braces. Plain capitals give the bases only. k = constrained ethyl (cEt); [5mC] = 5-methylcytosine; d = 2'-deoxy (DNA)
Legend:
Format in all cases: cell-based, human
[1] = test system: KLK3 mRNA; assay: KLK3 mRNA (AR target gene) in C4-2B MR cells
[2] = test system: C4-2B MR cells; assay: Proliferation of MDV3100-resistant C4-2B cells (CellTiter 96); details: 6 days
How it was run: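 Antisense oligonucleotides were added to the culture medium at 0.04, 0.20, 1.00 and 5.00 μM, with a non-targeting oligonucleotide as negative control. After 6 days of treatment, proliferation was read with CellTiter 96 AQueous One. Values are percent inhibition relative to untreated cells.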

[3] = test system: TMPRSS2 mRNA; assay: TMPRSS2 mRNA levels in LMR20 cells; details: for TMPRSS2 mRNA levels (% baseline value) after treatment with DHT / TMPRSS2 mRNA levels (% baseline value) after treatment with R1881 / TMPRSS2 mRNA levels (% baseline value) of cells without AR agonist treatment: LMR20 cells; for TMPRSS2 mRNA levels (% baseline value) after treatment with DHT: DHT 10 nM 72 hrs; for TMPRSS2 mRNA levels (% baseline value) after treatment with R1881: R1881 10 nM 72 hrs; for TMPRSS2 mRNA levels (% baseline value) of cells without AR agonist treatment: no AR agonist
Procedure: LMR20 cells were plated at 1,500 cells per well in phenol red-free medium with CSS.

[4] = test system: C4-2B cells; assay: C4-2B cell proliferation, ASO in combination with MDV3100 (Example 21); details: Homo sapiens, read-out: inhibited proliferation, MDV3100 with control oligonucleotide ISIS 549148
Procedure: C4-2B cells were plated at 1,000 cells per well. […] ISIS 549148 was included as a negative control. […] After a treatment period of 5 days, the proliferative capacity of the cancer cells was measured with CellTiter 96® AQueous One Solution Cell Proliferation kit (Promega), following the manufacturer's instructions. […]

[5] = test system: PSA mRNA; assay: PSA expression in LNCaP cells (complete, CSS+DHT medium); details: for Percent inhibition of PSA expression in LNCaP cells cultured in CSS + DHT medium: CSS + DHT (1 nM) medium, 48 hrs; for Percent inhibition of PSA expression in LNCaP cells cultured in complete medium: 48 hours
Procedure: (§1) Cells were plated at 1,000 cells per well. […] ISIS 549148 was included as a negative control. […] After an incubation period of 48 hours, RNA levels of AR, PSA and TMPRSS2 were measured.
(§2) Cells were plated at 2,000 cells per well and cultured in phenol red-free RPMI supplemented with 5% charcoal stripped serum (Gibco) media for 16 hours. […] ISIS 549148 was included as a negative control. […] After an incubation period of 4 hrs, DHT was added to the medium to a final concentration of 1 nM as indicated. RNAs were collected 48 hrs later and levels of AR, PSA and TMPRSS2 were measured. In the absence of DHT, AR expression in LNCaP cells was 95%, PSA expression was 7% and TMPRSS2 expression was 24% compared to the untreated control.

[6] = test system: TMPRSS2 mRNA; assay: TMPRSS2 expression in LNCaP cells (complete, CSS+DHT medium); details: for Percent inhibition of TMPRSS2 expression in LNCaP cells cultured in CSS + DHT medium: CSS + DHT (1 nM) medium, 48 hrs; for Percent inhibition of TMPRSS2 expression in LNCaP cells cultured in complete medium: 48 hours
Procedure: as §1, §2

[7] = test system: LNCaP cells; assay: LNCaP cell proliferation (complete or CSS+DHT medium); details: 5 days; for Proliferation (% untreated control) in LNCaP cells cultured in CSS + DHT medium: CSS + 1 nM DHT medium
Procedure: After a treatment period of 5 days in complete medium or CSS+1 nM DHT medium, the proliferative capacity of the cancer cells was measured with using CellTiter 96® AQueous One Solution or CellTiter-Glo® solution Cell Proliferation kit (Promega), following the manufacturer's instructions. […] Treatment with ISIS oligonucleotides in CSS+DHT medium reduced the proliferative capacity to a greater extent than treatment with MVD-3100. The proliferative capacity of cells cultured in CSS medium without DHT is 17% of untreated control levels.

[8] = test system: AR mRNA; assay: AR RNA expression in C4-2 cells (complete, CSS+DHT medium); details: 48 hrs; for Percent expression of AR / AR expression: C4-2 cells; for Percent expression of AR: CSS + DHT medium
Procedure: Cells were plated at 1,000 cells per well. […] After an incubation period of 48 hrs, RNA levels of AR, PSA and TMPRSS2 were measured.
Cells were plated at 2,000 cells per well and cultured in CSS media with 1 nM DHT. […] After an incubation period of 48 hrs, RNA levels of AR, PSA and TMPRSS2 were measured.

## 549372 (kA*kA*kG*dT*dT*dG*dT*dA*dG*dT*dA*dG*dT*k[5mC]*kG*k[5mC]) [compound 549372]
[1]; 0.04 μM
  Percent inhibition of KLK3 mRNA in C4-2B MR cells: 17%
[1]; 0.20 μM
  Percent inhibition of KLK3 mRNA in C4-2B MR cells: 35%
[1]; 1.00 μM
  Percent inhibition of KLK3 mRNA in C4-2B MR cells: 68%
[1]; 5.00 μM
  Percent inhibition of KLK3 mRNA in C4-2B MR cells: 80%
[2]; 0.04 μM
  Percent inhibition of C4-2B MR cell proliferation: 0%
[2]; 0.20 μM
  Percent inhibition of C4-2B MR cell proliferation: 4%
[2]; 1.00 μM
  Percent inhibition of C4-2B MR cell proliferation: 25%
[2]; 5.00 μM
  Percent inhibition of C4-2B MR cell proliferation: 43%

## 549458 (kG*kT*kT*dG*dA*dT*dT*dT*dA*dA*dT*dG*dG*kT*kT*kG) [compound 549458]
[1]; 0.04 μM
  Percent inhibition of KLK3 mRNA in C4-2B MR cells: 0%
[1]; 0.20 μM
  Percent inhibition of KLK3 mRNA in C4-2B MR cells: 42%
[1]; 1.00 μM
  Percent inhibition of KLK3 mRNA in C4-2B MR cells: 81%
[1]; 5.00 μM
  Percent inhibition of KLK3 mRNA in C4-2B MR cells: 92%
[2]; 0.04 μM
  Percent inhibition of C4-2B MR cell proliferation: 8%
[2]; 0.20 μM
  Percent inhibition of C4-2B MR cell proliferation: 16%
[2]; 1.00 μM
  Percent inhibition of C4-2B MR cell proliferation: 41%
[2]; 5.00 μM
  Percent inhibition of C4-2B MR cell proliferation: 56%
[3]; ASO 0.04 μM
  TMPRSS2 mRNA levels (% baseline value) after treatment with DHT: 127 % baseline value
  TMPRSS2 mRNA levels (% baseline value) after treatment with R1881: 137 % baseline value
  TMPRSS2 mRNA levels (% baseline value) of cells without AR agonist treatment: 110 % baseline value
[3]; ASO 0.20 μM
  TMPRSS2 mRNA levels (% baseline value) after treatment with DHT: 119 % baseline value
  TMPRSS2 mRNA levels (% baseline value) after treatment with R1881: 119 % baseline value
  TMPRSS2 mRNA levels (% baseline value) of cells without AR agonist treatment: 85 % baseline value
[3]; ASO 1.0 μM
  TMPRSS2 mRNA levels (% baseline value) after treatment with DHT: 106 % baseline value
  TMPRSS2 mRNA levels (% baseline value) after treatment with R1881: 96 % baseline value
  TMPRSS2 mRNA levels (% baseline value) of cells without AR agonist treatment: 54 % baseline value
[3]; ASO 5.0 μM
  TMPRSS2 mRNA levels (% baseline value) after treatment with DHT: 91 % baseline value
  TMPRSS2 mRNA levels (% baseline value) after treatment with R1881: 96 % baseline value
  TMPRSS2 mRNA levels (% baseline value) of cells without AR agonist treatment: 62 % baseline value

## CNC(=O)c1ccc(N2C(=S)N(c3ccc(C#N)c(C(F)(F)F)c3)C(=O)C2(C)C)cc1F [MDV3100, 4-(3-(4-cyano-3-(trifluoromethyl)phenyl)-5,5-dimethyl-4-oxo-2-thioxoimidazolidin-1-yl)-2-fluoro-N-methylbenzamide, reference compound]
[3]; ASO 0.04 μM
  TMPRSS2 mRNA levels (% baseline value) after treatment with DHT: 134 % baseline value
  TMPRSS2 mRNA levels (% baseline value) of cells without AR agonist treatment: 101 % baseline value
[3]; ASO 0.20 μM
  TMPRSS2 mRNA levels (% baseline value) after treatment with DHT: 144 % baseline value
  TMPRSS2 mRNA levels (% baseline value) after treatment with R1881: 125 % baseline value
  TMPRSS2 mRNA levels (% baseline value) of cells without AR agonist treatment: 119 % baseline value
[3]; ASO 1.0 μM
  TMPRSS2 mRNA levels (% baseline value) after treatment with DHT: 132 % baseline value
  TMPRSS2 mRNA levels (% baseline value) after treatment with R1881: 133 % baseline value
  TMPRSS2 mRNA levels (% baseline value) of cells without AR agonist treatment: 119 % baseline value
[3]; ASO 5.0 μM
  TMPRSS2 mRNA levels (% baseline value) after treatment with DHT: 124 % baseline value
  TMPRSS2 mRNA levels (% baseline value) after treatment with R1881: 139 % baseline value
  TMPRSS2 mRNA levels (% baseline value) of cells without AR agonist treatment: 141 % baseline value
[3]; with or without DHT/R1881
  TMPRSS2 mRNA levels in LMR20 cells: did not reduce either PSA or TMPRSS2 mRNA levels
[4]
  inhibition at 0.08 µM: 0%
  inhibition at 0.4 µM: 6%
[5]; 0.04 μM
  Percent inhibition of PSA expression in LNCaP cells cultured in CSS + DHT medium: 15%
  Percent inhibition of PSA expression in LNCaP cells cultured in complete medium: 0%
[5]; 0.2 μM
  Percent inhibition of PSA expression in LNCaP cells cultured in CSS + DHT medium: 38%
  Percent inhibition of PSA expression in LNCaP cells cultured in complete medium: 35%
[5]; 1 μM
  Percent inhibition of PSA expression in LNCaP cells cultured in CSS + DHT medium: 81%
  Percent inhibition of PSA expression in LNCaP cells cultured in complete medium: 84%
[5]; 5.0 μM
  Percent inhibition of PSA expression in LNCaP cells cultured in CSS + DHT medium: 82%
  Percent inhibition of PSA expression in LNCaP cells cultured in complete medium: 87%
[6]; 0.04 μM
  Percent inhibition of TMPRSS2 expression in LNCaP cells cultured in CSS + DHT medium: 8%
  Percent inhibition of TMPRSS2 expression in LNCaP cells cultured in complete medium: 0%
[6]; 0.2 μM
  Percent inhibition of TMPRSS2 expression in LNCaP cells cultured in CSS + DHT medium: 24%
  Percent inhibition of TMPRSS2 expression in LNCaP cells cultured in complete medium: 0%
[6]; 1 μM
  Percent inhibition of TMPRSS2 expression in LNCaP cells cultured in CSS + DHT medium: 60%
  Percent inhibition of TMPRSS2 expression in LNCaP cells cultured in complete medium: 34%
[6]; 5.0 μM
  Percent inhibition of TMPRSS2 expression in LNCaP cells cultured in CSS + DHT medium: 69%
  Percent inhibition of TMPRSS2 expression in LNCaP cells cultured in complete medium: 39%
[7]; 0.04 μM
  Proliferation (% untreated control) in LNCaP cells cultured in CSS + DHT medium: 112 % untreated control
  Proliferation (% untreated control) in LNCaP cells cultured in complete medium: 107 % untreated control
[7]; 0.2 μM
  Proliferation (% untreated control) in LNCaP cells cultured in CSS + DHT medium: 95 % untreated control
  Proliferation (% untreated control) in LNCaP cells cultured in complete medium: 88 % untreated control
[7]; 1 μM
  Proliferation (% untreated control) in LNCaP cells cultured in CSS + DHT medium: 74 % untreated control
  Proliferation (% untreated control) in LNCaP cells cultured in complete medium: 65 % untreated control
[7]; 5.0 μM
  Proliferation (% untreated control) in LNCaP cells cultured in CSS + DHT medium: 33 % untreated control
  Proliferation (% untreated control) in LNCaP cells cultured in complete medium: 45 % untreated control
[7]; complete medium or CSS+1 nM DHT
  proliferation of LNCaP cells: reduced proliferation of the cells in a dose dependent compared to the control
[8]; 0.04 μM
  Percent expression of AR: 101%
[8]; 0.2 μM
  Percent expression of AR: 109%
[8]; CSS+DHT medium
  AR expression: increased AR expression in the cells
[8]; complete medium
  AR expression: increased AR expression in the cells
[8]; complete medium, 0.04 μM
  Percent expression of AR in C4-2 cells cultured in complete medium: 95%
[8]; complete medium, 0.2 μM
  Percent expression of AR in C4-2 cells cultured in complete medium: 99%
[8]; complete medium, 1 μM
  Percent expression of AR in C4-2 cells cultured in complete medium: 132%
[8]; complete medium, 5.0 μM
  Percent expression of AR in C4-2 cells cultured in complete medium: 137%
